From patent US8920785B2, “Cosmetic or dermatological preparations with a content of one or more thiazole derivates” (Beiersdorf AG, priority 2010, dated 2014)

Target: T1, human tyrosinase (Homo sapiens, UniProt P14679)
T1 sequence (P14679 19-529): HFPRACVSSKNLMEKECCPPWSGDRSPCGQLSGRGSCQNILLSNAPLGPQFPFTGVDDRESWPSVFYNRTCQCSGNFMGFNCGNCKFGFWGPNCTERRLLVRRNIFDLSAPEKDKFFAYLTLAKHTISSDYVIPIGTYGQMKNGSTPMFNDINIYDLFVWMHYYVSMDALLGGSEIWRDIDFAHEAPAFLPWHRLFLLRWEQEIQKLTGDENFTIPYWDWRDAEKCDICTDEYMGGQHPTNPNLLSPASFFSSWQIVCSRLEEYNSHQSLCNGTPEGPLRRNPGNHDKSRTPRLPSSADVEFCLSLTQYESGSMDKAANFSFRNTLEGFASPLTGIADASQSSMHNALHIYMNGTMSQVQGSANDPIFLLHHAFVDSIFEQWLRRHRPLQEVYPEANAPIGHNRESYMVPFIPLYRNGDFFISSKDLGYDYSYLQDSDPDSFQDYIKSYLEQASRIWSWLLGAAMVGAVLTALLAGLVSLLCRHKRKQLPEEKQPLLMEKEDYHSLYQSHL
Test: Enzyme test: conversion of L-DOPA to L-dopaquinone by human tyrosinase (MBTH, absorption at 490 nm)
Assay type: biochemical
Settings: Concentration 100 μg/ml; substrate L-DOPA; read-out: Inhibition (% of control) of tyrosinase activity
Description: The efficacy of the thiazoles has been verified using an enzyme test by measuring the conversion of L-DOPA to L-dopaquinone by a human tyrosinase. In this method that is known from the literature (Winder, A. J. and Harris H., New assays for the tyrosine hydroxylase and dopa oxidase activities of tyrosinase. Eur. J. Biochem. (1991), 198, 317-26), the reaction product L-dopaquinone is reacted with MBTH (3-methyl-2-benzothiazoline hydrazone) is converted to form a pink-colored substance, the increase of which over time is measured by absorption at 490 nm. In table one, efficacy data for some of the claimed substances are shown by way of example. It may be concluded therefrom that the substances according to the invention are extremely effective pigmentation-inhibiting substances.

SMILES | inhibition at 100 µg/mL
Oc1ccc(-c2csc(Nc3ncccn3)n2)cc1 [Compound 20] | 61.3%
Oc1ccc(-c2csc(Nc3ccccn3)n2)cc1 [Compound 21] | 87.6%
Oc1ccc(-c2csc(Nc3ccccc3)n2)c(O)c1 [Compound 2] | 100%
CN(c1ccccc1)c1nc(-c2ccc(O)cc2)cs1 [Compound 22] | 87.9%
Oc1ccc(-c2csc(Nc3ncccn3)n2)c(O)c1 [Compound 1] | 93.1%

Next, values leading:

inhibition at 100 µg/mL | SMILES
100% | O=C(Nc1nc(-c2ccc(O)cc2O)cs1)c1ccccc1 [Compound 26]
82.9% | Oc1ccc(-c2csc(NN3CCOCC3)n2)c(O)c1 [Compound 24]
90.3% | Oc1ccc(-c2csc(N3CCOCC3)n2)c(O)c1 [Compound 25]
80.5% | CCN(CC)CCNc1nc(-c2ccc(O)cc2O)cs1 [Compound 28]
